# Test results from patent US6162832A, “2-Phenoxyaniline derivatives” (Taisho Pharmaceutical Co., Inc., priority 1997, dated 2000).
# Counter-ions that a name gives are not always drawn.
# Target: T1, Na^+ /Ca^2+ Exchange System (Canis lupus familiaris, UniProt P23685)
# T1 construct: Sarcolemmal vesicles prepared from the removed dog ventricular muscles; from tissue; host or cells: dog ventricular muscle, sarcolemmal vesicles
# Assay: Inhibitory Action on a Na^+ /Ca^2+ Exchange System using Cardiac Sarcolemmal Vesicles
# Format: biochemical
# Details: 10 s; 1 μM test drug; dog ventricular sarcolemmal vesicles; 45Ca uptake, 10 seconds; remaining activity vs vehicle-treated group; read-out: Na^+ /Ca^2+ exchange activity (% of control)
# Experimental: Inhibitory Action on a Na^+ /Ca^2+ Exchange System using Cardiac Sarcolemmal Vesicles Sarcolemmal vesicles prepared from the removed dog ventricular muscles according to the method described in the literature (L. R. Jones, Methods, Enzymol., 1988, 157, pp. 85) were used. A Na^+ /Ca^2+ exchange activity using the sarcolemmal vesicles was measured according to the method described in the literature (K. D. Philipson, et al., J. Biol. Chem., 1980, 255, pp. 6880). First, the sarcolemmal vesicles were suspended in a sodium-containing solution [160 mM sodium chloride, 20 mM Tris-hydrochloric acid (pH 7.4)] to make up to a protein concentration of 1.5 mg/ml, and allowed to stand for an hour to load Na^+ in the sarcolemmal vesicles. To 2.5 μl of the sarcolemmal vesicles was added 125 μl of a [^45 Ca]-calcium chloride solution [20 μM [^45 Ca]-calcium chloride, 160 mM potassium chloride and 20 mM Mops-Tris (pH 7.4)], and after 10 seconds, 900 μl of an ice-cooled lanthanum chloride solution [10 mM lanthanum chloride, 160 mM potassium chloride and 20 mM Mops-Tris (pH 7.4)] was added. The sarcolemmal vesicles were recovered on a nitrocellulose filter by suction filtration and washed three times with 900 μl of a lanthanum chloride solution. The […] of Ca^2+ uptake in the sarcolemmal vesicles was determined by measuring a ^45 Ca radioactivity by a scintillator. In addition, a Na^+ /Ca^2+ exchange activity-independent Ca^2+ uptake in the sarcolemmal vesicles was determined by carrying out the same procedure using a potassium-containing solution [160 mM potassium chloride, 20 mM Tris-hydrochloric acid (pH 7.4)] instead of the sodium-containing solution. The test compound was used as a dimethyl sulfoxide solution thereof, and its inhibitory effect was evaluated in comparison with the vehicle-treatedgroup.
row,remaining activity at 1 µM [%],Compound
1,33,"CCOc1ccc(Oc2ccc(OCc3c(F)cccc3F)cc2)c(N)c1 [Compound 7, 2-[4-(2.6-Difluorobenzyloxy)phenoxy]-5-ethoxyaniline hydrochloride]"
2,47,"Nc1ccccc1Oc1ccc(OCc2ccc(F)cc2F)cc1 [Compound 8, 2-[4-(2,4-Difluorobenzyloxy)phenoxy]aniline hydrochloride]"
3,45,"CCOc1ccc(Oc2ccc(OCc3cccc(F)c3F)cc2)c(N)c1 [Compound 10, 2-[4-(2,3-Difluorobenzyloxy)phenoxy]-5-ethoxyaniline hydrochloride]"

# More lines, now with the values behind:
row,Compound,remaining activity at 1 µM [%]
1,"Nc1ccccc1Oc1ccc(OCc2cccc(F)c2F)cc1 [Compound 3, 2-[4-(2,3-Difluorobenzyloxy)phenoxy]aniline hydrochloride]",38
2,"Nc1ccccc1Oc1ccc(OCc2cc(F)ccc2F)cc1 [Compound 4, 2-[4-(2,5-Difluorobenzyloxy)phenoxy]aniline hydrochloride]",27
3,"Nc1ccccc1Oc1ccc(OCc2c(F)cccc2F)cc1 [Compound 5, 2-[4-(2,6-Difluorobenzyloxy)phenoxy]aniline hydrochloride]",43
4,"CCOc1ccc(Oc2ccc(OCc3cc(F)ccc3F)cc2)c(N)c1 [Compound 6, 2-[4-(2.5-Difluorobenzyloxy)phenoxy]-5-ethoxyaniline hydrochloride]",39
